Source: US9782346B2, “Biodegradable ocular implant” (Nanyang Technological University, priority 2010, dated 2017)

How the values were obtained:
[1] = Sustained drug release from PLC films / sandwich constructions; type: physicochemical
rabbit eyes = conditions: in vivo
Experimental: We obtained approval from the SingHealth Institute Animal Care and Use Committee (IACUC Singhealth Approval Number 2009/SHS/478) and all procedures were performed in accordance with the ARVO Statement for the Use of Animals in Ophthalmic and Vision Research. Nine New Zealand white rabbits (18 eyes) were used aged 4-6 months old with a weight range of 2-2.5 kg each. Each rabbit was anesthetized with intraperitoneal injection of ketamine hydrochloride (35-50 mg/kg) and Xylazil (5-10 mg/kg). After the animal had been adequately anaesthetized, the eye was cleaned with povidone-iodine (10%) and draped with sterile cloth. […]
Visual inspection of the operated eyes was conducted daily following surgery. […] All clinical and ocular observations were recorded on a chart. The test animals were also monitored for any gross changes such as eye discharge, squinting and, ocular discomfort. […]
Anterior segment photographs and anterior segment optical coherence tomography (AS-OCT, Visante OCT, Carl Zeiss Meditec Inc., Germany) of the implanted eyes was performed at monthly intervals. […] The site of conjunctival elevation from the microfilm was determined by the location of a light reflex over the conjunctiva during image acquisition. In cases where the light reflex was absent, the observer manually assessed the surface of the microfilm to select a radius that contained elevation. […]

In the case of CCCC(CCC)C(=O)O [valproic acid], the “Duration of controlled release” value ([1]; 1% and 2% sandwich constructions (multi-layered implant)) is reported as 20 days.

With C[C@]12C=CC(=O)C=C1CC[C@@H]1[C@@H]2[C@@H](O)C[C@@]2(C)[C@H]1CC[C@]2(O)C(=O)CO [Prednisolone] the “Duration of controlled release” value ([1]; from PLC (70/30 copolymer of PLA and PCL)) was 100 days.

Compound CC(C)OC(=O)CCC/C=C\C[C@@H]1[C@@H](CC[C@@H](O)CCc2ccccc2)[C@H](O)C[C@@H]1O [Latanoprost] has a Duration of delivery ([1]; from PLC films) of 10 days.

With “Poly(d,l-lactide-co-e-caprolactone) [PLC70/30]” the “mean increase in vascularity grade” value (rabbit eyes) was 15±0.6% and the “mean percent increase in ocular score” value (rabbit eyes) was 15±0.6%.
